The results in this text go back to ChEMBL document CHEMBL1142752, “Synthesis and antiviral activities of novel N-alkoxy-arylsulfonamide-based HIV protease inhibitors” (Bioorg Med Chem Lett, 2005).

A word on the Ki: it is a dissociation constant, usually derived from enzyme kinetics or from competition with a known ligand. High values mean weaker binding, low ones tighter binding.

In the assay the target is Human immunodeficiency virus type 1 protease (Human immunodeficiency virus 1, UniProt Q72874). Kind of assay: Inhibition constant against HIV-1 protease.
For `COc1ccc(S(=O)(=O)N(C[C@@H](O)[C@H](Cc2ccccc2)NC(=O)OC(C)(C)C)OC2CCCCC2)cc1`, the Ki was found to be 2.8 nM.

`COc1ccc(S(=O)(=O)N(CC(O)C(Cc2ccccc2)NC(=O)[C@H](CC(N)=O)NC(=O)c2ccc3ccccc3n2)OC2CCCC2)cc1` (some centres not stated) gave a Ki of less than 0.005 nM.

Compound `COc1ccc(S(=O)(=O)N(C[C@@H](O)[C@H](Cc2ccccc2)NC(=O)OC(C)(C)C)Oc2ccccc2)cc1` came in with a Ki of 22 nM.

`O=C(N[C@@H](Cc1ccccc1)[C@H](O)CN(OC1CCCC1)S(=O)(=O)c1ccc(O)cc1)O[C@H]1CO[C@H]2OCC[C@H]21` yielded a Ki of less than 0.005 nM.

The compound `Nc1ccc(S(=O)(=O)N(C[C@@H](O)[C@H](Cc2ccccc2)NC(=O)O[C@H]2CO[C@H]3OCC[C@H]32)OC2CCCC2)cc1` returned a Ki of less than 0.005 nM.

`Nc1cccc(S(=O)(=O)N(C[C@@H](O)[C@H](Cc2ccccc2)NC(=O)O[C@H]2CO[C@H]3OCC[C@H]32)OC2CCCC2)c1` came in with a Ki of less than 0.005 nM.

`COC(=O)N[C@H](C(=O)N[C@@H](Cc1ccccc1)[C@H](O)CN(OC1CCCC1)S(=O)(=O)c1ccc(OC)cc1)C(C)(C)C` displayed a Ki of 0.09 nM. This lies in the picomolar range.

Consider `O=C(N[C@@H](Cc1ccccc1)[C@H](O)CN(OC1CCCC1)S(=O)(=O)c1ccc2c(c1)OCO2)O[C@H]1CO[C@H]2OCC[C@H]21`, for which the Ki was less than 0.005 nM.

On to `COc1ccc(S(=O)(=O)N(C[C@@H](O)[C@H](Cc2ccccc2)NC(=O)OC(C)(C)C)OCC(C)C)cc1`, for which the Ki is 4 nM.

Consider `COc1ccc(S(=O)(=O)N(C[C@@H](O)[C@H](Cc2ccccc2)NC(=O)O[C@@H]2COC3OCCC32)OC2CCCC2)cc1` (some centres not stated), for which the Ki is less than 0.005 nM.

Turning to `O=C(N[C@@H](Cc1ccccc1)[C@H](O)CN(OC1CCCCC1)S(=O)(=O)c1ccc(O)cc1)O[C@H]1CO[C@H]2OCC[C@H]21`, the Ki is less than 0.005 nM.

Regarding `O=C(N[C@@H](Cc1ccccc1)[C@H](O)CN(OC1CCCCC1)S(=O)(=O)c1ccc2c(c1)OCCO2)O[C@H]1CO[C@H]2OCC[C@H]21`, the Ki is less than 0.005 nM.

With `Nc1cccc(S(=O)(=O)N(C[C@@H](O)[C@H](Cc2ccccc2)NC(=O)O[C@H]2CO[C@H]3OCC[C@H]32)OC2CCCCC2)c1`, affinity was put at a Ki of 0.005 nM.

On to `Nc1ccc(S(=O)(=O)N(C[C@@H](O)[C@H](Cc2ccccc2)NC(=O)O[C@H]2CO[C@H]3OCC[C@H]32)OC2CCCCC2)cc1`, for which the Ki stood at 0.018 nM.

Regarding `COc1ccc(S(=O)(=O)N(C[C@@H](O)[C@H](Cc2ccccc2)NC(=O)O[C@H]2CO[C@H]3OCC[C@H]32)OC2CCCC2)cc1`, the Ki was less than 0.005 nM.

For the compound `COc1ccc(S(=O)(=O)N(C[C@@H](O)[C@H](Cc2ccccc2)NC(=O)OC(C)(C)C)OCC2CCCCC2)cc1`, the Ki was 12 nM.

Compound `O=C(N[C@@H](Cc1ccccc1)[C@H](O)CN(OC1CCCCC1)S(=O)(=O)c1ccc2c(c1)OCO2)O[C@H]1CO[C@H]2OCC[C@H]21` returned a Ki of less than 0.005 nM.

On to `CCC(CC)ON(C[C@@H](O)[C@H](Cc1ccccc1)NC(=O)OC(C)(C)C)S(=O)(=O)c1ccc(OC)cc1`, for which the affinity corresponds to a Ki of 3.2 nM.

`COc1ccc(S(=O)(=O)N(C[C@@H](O)[C@H](Cc2ccccc2)NC(=O)OC2CCOC2)OC2CCCC2)cc1` (some centres not stated): the affinity, expressed as Ki, was 0.19 nM.

For the compound `COc1ccc(S(=O)(=O)N(C[C@@H](O)[C@H](Cc2ccccc2)NC(=O)OC(C)(C)C)OC2CCCC2)cc1`, affinity was put at a Ki of 1.6 nM.

The compound `O=C(N[C@@H](Cc1ccccc1)[C@H](O)CN(OC1CCCC1)S(=O)(=O)c1ccc2c(c1)OCCO2)O[C@H]1CO[C@H]2OCC[C@H]21` gave a Ki of less than 0.005 nM.

As for `COc1ccc(S(=O)(=O)N(C[C@@H](O)[C@H](Cc2ccccc2)NC(=O)OC(C)(C)C)OC(C)C)cc1` [ENTRY A], the Ki worked out at 14 nM.
